Experimental data reported in US11117939B2, “Polypeptides and antibodies to treat skin conditions associated with overproduction of sebum” (University of Sasketchewan, priority 2015, dated 2021).

Test system: SZ95 sebocytes
Assay: Detection of lipids (nile red fluorescence) in SZ95 sebocytes
Format: cell-based, human
Conditions: for production of neutral (sebaceous) lipids: 24 vs 48 hours
Method: C., Seltmann, H., Neitzel, H. & Orfanos, C. E. (1999) J. Invest. Dermatol. 113, 1011-1020], were maintained in Sebomed Basal Medium (Biochrom, Berlin) supplemented with 5 ng/ml human epidermal growth factor (Sigma), 10% heat inactivated FCS (Biochrom GmbH, Berlin, Germany), 50 ug/ml gentamicin (GIBCO/BRL), and 1 mM Ca2+, in a humidified atmosphere of 5% CO2 at 37° C. Shortly before the experiments were performed, BSA-medium [constituted of Sebomed Basal Medium supplemented with 1 mg/ml fatty acid-free BSA (Boehringer Mannheim), 1 mM Ca2+, and 10^-6 M linoleic acid (Sigma)] or Sebomed Complete Medium (Biochrom) was added to the cells. The SZ95 human sebocytes used for the experiments were between passages 31 and 35. The cells were subcultured at 60-70% confluence. The cultures were maintained at 37° C. in a humidified 5% CO2 incubator and the medium was replaced every 2-3 days.
The cells were cultured in 96-well tissue culture plates at a density of 2,000 cells per well for 2 days. The wells were then washed with PBS, and Sebomed Complete Medium was added. After 2 days, the medium was harvested, and fresh medium without or with INDIP peptide (SEQ ID NO: 2) at a concentration of 0, 0.1, 1, 10, or 20 μM in the presence and absence of Linoleic acid (5×10^−5 and 10^−4 M) and Testosterone (2×10^−8 M) was given to the cells. The supernatants were harvested 24 or 48 h later; the wells were washed twice with PBS, and 100 μl of a 10 μg/ml nile red solution in PBS was added to each well. 10 uM of scrambled INDIP peptide (i.e. a scrambled version of SEQ ID NO: 2) was used as the negative control peptide. The plates were then incubated at 37° C. for 30 min, and the released fluorescence was read on a Molecular Devices SPECTRAmax Gemini spectrofluorometer. The results are presented as percentages of the absolute fluorescence units in comparison with the controls, using 485 nm excitation and 565 nm emission filters for neutral lipids and 540 nm excitation and 620 nm emission filters for polar lipids. Experiments were performed in triplicate, with 10 wells evaluated for each data point in each experiment.

Sequence: YGRKKRRQRRRGEPHKFKREW ((1)..(11) Tat; (12)..(21) Insig-1) [INDIP peptide (SEQ ID NO: 2), PTD-fused (TAT protein transduction domain) Insig-1 ubiquitination region peptide]
- production of neutral (sebaceous) lipids (10 μM peptide, occasionally, absence or presence of linoleic acid and testosterone): significantly reduced
- production of neutral (sebaceous) lipids (20 μM peptide, greater effect as time progressed, absence or presence of linoleic acid and testosterone): significantly reduced
- sebaceous differentiation (all conditions tested, with and without linoleic acid and testosterone): able to reduce
- lipid production (application to SZ95 sebocytes in vitro): Significant Reduction
- polar lipids (membrane synthesis, synthetic activity of the cells) (concomitant with the neutral lipid reduction, absence or presence of linoleic acid and testosterone): concomitant reduction
